From ChEMBL document CHEMBL2384979, “Synthesis of the (1→6)-linked thiodisaccharide of galactofuranose: inhibitory activity against a β-galactofuranosidase” (Bioorg Med Chem, 2013)

Columns and labels:
[1] = Competitive inhibition of Penicillium fellutanum exo-beta-galactofuranosidase assessed as 4-Nitrophenyl beta-D-galactofuranoside conversion to 4-nitrophenol after 1.5 hrs by Lineweaver-Burk plot analysis
[2] = Inhibition of Penicillium fellutanum exo-beta-galactofuranosidase assessed as 4-Nitrophenyl beta-D-galactofuranoside conversion to 4-nitrophenol after 1.5 hrs by spectrophotometric analysis

Structure (SMILES)	Ki [1]	IC50 [2]
CO[C@@H]1O[C@@H]([C@H](O)CS[C@@H]2O[C@@H]([C@H](O)CO)[C@H](O)[C@H]2O)[C@H](O)[C@H]1O	3620 µM	–
O=[N+]([O-])c1ccc(S[C@@H]2O[C@@H]([C@H](O)CO)[C@H](O)[C@H]2O)cc1	–	600 µM
Nc1ccc(S[C@@H]2O[C@@H]([C@H](O)CO)[C@H](O)[C@H]2O)cc1	–	80 µM
O=C1O[C@@H]([C@H](O)CO)[C@H](O)[C@H]1O	100 µM	–
